# Results reported in US11273131B2, “Pharmaceutical compositions with enhanced permeation” (AQUESTIVE THERAPEUTICS, INC., priority 2016, dated 2022).
# Marks after values point to notes of the source that are not given here.
# Key:
# [1] = Diazepam solubility in excipients; format: physicochemical; details: diazepam (API) in the excipient
# Description: Diazepam was applied in the buccal area (cheek) to diffuse through the oral mucosa and enter directly into the bloodstream. Solubility of diazepam was also studied using various excipients.
# The following excipients have also been studied to improve solubility.
# [2] = Ex vivo permeation of epinephrine, Franz diffusion cell
# Description: A franz diffusion cell is obtained and prepared.
# If testing films, one can perform the following next steps: (1) weigh films, punch to match diffusion area (or smaller), reweigh, record pre- and post-punching weight; (2) wet a donor area with approximately 100 μL of phosphate buffer; (3) place film on a donor surface, top with 400 μL of phosphate buffer, and start timers.
# The tissue is dermatomed to precise thickness. • 4. […] The media is selected to ensure sink conditions. • 5.
# [3] = Excipient properties (HLB, water solubility); format: physicochemical; details: of the excipient
# [4] = FIG. 6A, 6B
smiles,measurement,setting,value
OCc1ccccc1 [Benzyl Alcohol],API Solubility mg/gm total mix,[1],400 mg/gm total mix
CNC[C@H](O)c1ccc(O)c(O)c1 [Epinephrine Base],"permeation, base solubilized in situ vs Epinephrine Bitartrate",[2]; 4.4 mg/mL base vs 8.00 mg/mL bitartrate,no differences were found
same,Average Steady State Flux,"[2]; conc 4.4 mg/mL, solubilized in situ",0.512 ug/cm2 * min
CNC[C@H](O)c1ccc(O)c(O)c1 [Epinephrine Bitartrate],permeation as a function of concentration,[2],increasing concentration resulted in increased permeation
same,permeation as a function of solution pH,[2],pH 5 was slightly more favorable as compared to pH 3
same,average flux,"[2]; 30 min, 16 mg/mL",0 μg/cm2 * min
same,average flux,"[2]; 45 min, 16 mg/mL",0.2604 μg/cm2 * min
same,average flux,"[2]; 60 min, 16 mg/mL",0.3125 μg/cm2 * min
same,average flux,"[2]; 120 min, 16 mg/mL",0.6727 μg/cm2 * min
same,average flux,"[2]; 180 min, 16 mg/mL",1.076 μg/cm2 * min
same,average flux,"[2]; 240 min, 16 mg/mL",1.029 μg/cm2 * min
same,average flux,"[2]; 300 min, 16 mg/mL",1.25 μg/cm2 * min
same,Average Steady State Flux,"[2]; 360 min, 4 mg/mL",0.167 ug/cm2 * min
same,Average Steady State Flux,"[2]; 360 min, 8 mg/mL",0.466 ug/cm2 * min
same,Average Steady State Flux,"[2]; 360 min, 16 mg/mL",1.317 ug/cm2 * min
same,average flux,"[2]; 360 min, 16 mg/mL",1.385 μg/cm2 * min
same,Average Steady State Flux,"[2]; 360 min, 100 mg/mL",2.942 ug/cm2 * min
CCCCCCCC/C=C\CCCCCCCC(=O)OCC(O)CO (stereo not shown) [Glycerol Monooleate],API Solubility mg/gm total mix,[1],71 mg/gm total mix
same,HLB,[3],1
CCCCCCCC/C=C\CCCCCCCC(=O)O [Oleic Acid],API Solubility mg/gm total mix,[1],<50 mg/gm total mix
CC(O)CO (stereo not shown) [Propylene Glycol],API Solubility mg/gm total mix,[1],<30 mg/gm total mix
CNC[C@H](O)c1ccc(O)c(O)c1 [epinephrine],time after which amount leveled off,[4],about 40 minutes
